In patent publication US20190151351A1, “REGULATORS OF ANAPLASTIC LYMPHOMA KINASE AND USES THEREOF” (Celldex Therapeutics, Inc., priority 2014, published 2019):
One block for each molecule: values may come before it.

Key:
[1] = tested on: ALK; experiment: Western blot of ALK and AKT phosphorylation in NB1 neuroblastoma cells (heparin dose response, other glycosaminoglycans); type: cell-based; conditions: heparin 0-100 μg/mL, other glycosaminoglycans at 10 μg/mL
Description: NB1 neuroblastoma cells were treated with increasing doses of heparin (0, 0.001, 0.01, 0.1, 1, 10, 100 μg/mL heparin), and phosphorylation of ALK and AKT was monitored by Western blot analysis. Various glycosaminoglycans at 10 μg/mL were also assessed for their ability to activate ALK. An ALK-agonistic mAb was used as a positive control for pALK and pAKT.

[2] = molecular target: FL-ECD binding to heparin; experiment: SPR competition: inhibition of FL-ECD binding to heparin surface
Description: FIG. 8: Sucrose octasulfate (SOS) inhibits ALK binding to heparin in a dose-dependent manner, as measured by SPR. A titration of SOS was pre-incubated with 350 nM of FL-ECD. These complexes were then injected over the heparin surface.
These complexes were then injected over the heparin surface. […] In addition, the IC50 and inhibition constant values indicate a high degree of specificity for the interaction between heparin and ALK.
A BIACORE™ T100 instrument was used at 25° C. using 25 mM Hepes, 300 mM NaCl, 10% Glycerol, pH 7.4. All reagents were dialyzed with this buffer prior to use. Heparin-biotin (Sigma) sold as ≥97% pure was further purified using PD-10 pre-packed columns (GE-Healthcare) to remove free biotin in solution. Heparin-biotin was then immobilized on an assembled NeutrAvidin surface (amine coupled on a CM4 Series-S Biacore chip): three surfaces were produced with different concentrations of immobilized heparin by varying contact time from 48 to 240 s, and excess ligand was removed. Due to the heterogeneous nature of heparins, the surface was a combination of many chain lengths of heparin. Three-fold dilutions of FL-ECD and ΔN-ECD were injected sequentially over a reference surface without heparin and three heparin surfaces. The surface was regenerated between cycles with 2.5 M NaCl, 5 mM Acetic Acid, pH 4.5. For the SOS competition assay, serial dilutions of SOS were pre-incubated with 0.350 μM FL-ECD and then injected over the chip. Data were analyzed using the BiaCore T100 software.

[3] = tested on: ALK; experiment: SOS inhibition of heparin-induced phosphorylation in NB1 neuroblastoma cells; type: cell-based; conditions: SOS 0-10 mg/mL along with 10 μg/mL heparin
Description: FIG. 4: Heparin induced activation of ALK is inhibited by sucrose-octasulfate (SOS).
NB1 neuroblastoma cells were treated with increasing doses of SOS (0, 0.001, 0.01, 0.1, 1, and 10 mg/mL) along with 10 μg/mL of heparin.

[4] = tested on: ALK; experiment: Western blot of ALK and MAPK phosphorylation in NB1 neuroblastoma cells; type: cell-based; conditions: heparin 10 μg/mL
Description: FIG. 2: Heparin, but neither PTN or MK, induces ALK tyrosine phosphorylation. […] An agonistic anti-ALK monoclonal antibody was used as a positive control for activation of ALK and MAPK.
NB1 neuroblastoma cells were treated with heparin (Hep), pleiotrophin (PTN), and midkine (MK) to determine the influence of each on ALK phosphorylation. […] An agonistic anti-ALK monoclonal antibody was used as a positive control for activation of ALK and MAPK.
Target sequence in this assay (Q9UM73 19-222 limits assumed): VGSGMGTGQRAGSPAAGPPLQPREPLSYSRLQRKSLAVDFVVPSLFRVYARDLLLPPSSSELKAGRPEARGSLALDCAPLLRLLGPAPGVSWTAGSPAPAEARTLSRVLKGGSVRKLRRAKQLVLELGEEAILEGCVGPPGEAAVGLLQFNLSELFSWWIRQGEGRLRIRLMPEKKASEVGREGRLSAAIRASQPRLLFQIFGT

Molecule: Dextran sulfate
phosphorylation of ALK and AKT [1]: induce phosphorylation of ALK and AKT

Ki ([2]; SPR SOS competition with 350 nM FL-ECD, read-out: inhibition constant (Ki)): 2250 nM | IC50 ([2]; SPR, SOS pre-incubated with 350 nM FL-ECD, Rmax values): 6500 nM | Kd ([2]; calculated using the Cheng-Prusoff equation, read-out: KD for SOS/FL-ECD binding): 2250 nM
Molecule: O=S(=O)(O)OC[C@H]1O[C@@](COS(=O)(=O)O)(O[C@H]2O[C@H](COS(=O)(=O)O)[C@@H](OS(=O)(=O)O)[C@H](OS(=O)(=O)O)[C@H]2OS(=O)(=O)O)[C@@H](OS(=O)(=O)O)[C@@H]1OS(=O)(=O)O [SOS, Sucrose-octasulfate]
inhibition of heparin-induced phosphorylation of ALK, AKT and MAPK [3]: capable of inhibiting heparin-induced phosphorylation of ALK, AKT, and MAPK in a dose dependent manner

B1: PTN: secreted protein Pleiotrophin, proposed as physiological ALK ligand (protein)
chain: GKKEKPEKKVKKSDCGEWQWSVCVPTSGDCGLGTREGTRTGAECKQTMKTQRCKIPCNWKKQFGAECKYQFQAWGECDLNTALKTRTGSLKRALHNAECQKTVTISKPCGKLTKPKPQAESKKKKKEGKKQEKMLD
ALK (tyrosine) phosphorylation [4]: neither PTN nor MK influence ALK phosphorylation

B2: MK: secreted protein Midkine, proposed as physiological ALK ligand (protein)
chain: VAKKKDKVKKGGPGSECAEWAWGPCTPSSKDCGVGFREGTCGAQTQRIRCRVPCNWKKEFGADCKYKFENWGACDGGTGTKVRQGTLKKARYNAQCQETIRVTKPCTPKTKAKAKAKKGKGKD
ALK (tyrosine) phosphorylation [4]: neither PTN nor MK influence ALK phosphorylation
